Test results published in patent US20230085307A1, “PYRIDAZINONE COMPOUND AND HERBICIDE” (NISSAN CHEMICAL CORPORATION, priority 2019, published 2023).

system: late watergrass; test: Test Example 1: herbicidal activity, application before weed generation under submerged conditions (Table 16, symbol A); assay type: in vivo, late watergrass (Echinochloa oryzicola); conditions: amount of applied herbicide 320 g/ha
Procedure, shortened: (§1)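 Alluvial soil was flooded to 4 cm depth, weed seeds were sown mixed and 2.5-leaf rice seedlings were transplanted. On sowing day, the compound's emulsion, diluted in water to a set dose, was applied to the water surface. Plants grew at 25–30 °C and were scored 0–5 after three weeks.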

Row | SMILES | Herbicidal effect, A: late watergrass
1 | CCCOc1ccc2c(-c3c(O)c(C)nn(C)c3=O)c(-c3ccccc3OCC)sc2c1 [3-103] | 5 (Herbicidal rate of 90% or more (almost completely withered))
2 | COc1ccccc1-c1sc2cc(OCC(F)F)ccc2c1-c1c(O)c(C)nn(C)c1=O [3-114] | 5 (Herbicidal rate of 90% or more (almost completely withered))
3 | CCOc1ccccc1-c1sc2cc(OCCOC)ccc2c1-c1c(O)c(C)nn(C)c1=O [3-123] | 5 (Herbicidal rate of 90% or more (almost completely withered))

system: barnyard grass; test: Test Example 3: herbicidal effect by foliage application, Wagner pot (Table 18, symbol H); assay type: in vivo, barnyard grass (Echinochloa crus-galli); conditions: 320 g/ha
Procedure, shortened: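 Plants were sown in alluvial soil held under 0.1–0.5 cm standing water and grown 14 days in a greenhouse at 25–30 °C. An emulsifiable formulation, water-diluted to the set dose, was then sprayed onto the foliage, and effects were scored three weeks later using previously defined criteria.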

Row | SMILES | herbicidal effect on barnyard grass (H)
4 | CCCOc1ccc2c(-c3c(O)c(C)nn(C)c3=O)c(-c3ccccc3OCC)sc2c1 [3-103] | 4 (Herbicidal rate of 70% or more and less than 90%)
5 | COc1ccccc1-c1sc2cc(OCC(F)F)ccc2c1-c1c(O)c(C)nn(C)c1=O [3-114] | 5 (Herbicidal rate of 90% or more (almost completely withered))
6 | CCOc1ccccc1-c1sc2cc(OCCOC)ccc2c1-c1c(O)c(C)nn(C)c1=O [3-123] | 5 (Herbicidal rate of 90% or more (almost completely withered))

system: wild oat; test: Test Example 5: herbicidal effect by foliage application, plastic box (Table 20, symbol I); assay type: in vivo, wild oat (Avena fatua); conditions: foliage application, 320 g/ha, three weeks after application
Procedure, shortened: (§2)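 Sow seeds spot-wise in sterilized diluvial soil; cover with ~1.5 cm soil. Grow 14 days in greenhouse, 25° C. to 30° C. Spray foliage with emulsion diluted to predetermined amount. Rate effect after 3 weeks.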

Row | SMILES | I: wild oat, herbicidal effect grade
7 | CCCOc1ccc2c(-c3c(O)c(C)nn(C)c3=O)c(-c3ccccc3OCC)sc2c1 [3-103] | 2 (Herbicidal rate of 20% or more and less than 40%)
8 | COc1ccccc1-c1sc2cc(OCC(F)F)ccc2c1-c1c(O)c(C)nn(C)c1=O [3-114] | 5 (Herbicidal rate of 90% or more (almost completely withered))
9 | CCOc1ccccc1-c1sc2cc(OCCOC)ccc2c1-c1c(O)c(C)nn(C)c1=O [3-123] | 5 (Herbicidal rate of 90% or more (almost completely withered))

system: blackgrass; test: Test Example 4: herbicidal effect by soil treatment (Table 19, symbol J); assay type: in vivo, blackgrass (Alopecurus myosuroides); conditions: amount of applied herbicide 320 g/ha
Procedure, shortened: (§3)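 Applied as a water-diluted emulsion, the compound was sprayed onto soil covering newly sown seeds. Evaluation came three weeks after application, in a greenhouse held at 25° C. to 30° C.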

Row | SMILES | J: blackgrass, herbicidal effect grade
10 | CCCOc1ccc2c(-c3c(O)c(C)nn(C)c3=O)c(-c3ccccc3OCC)sc2c1 [3-103] | 3 (Herbicidal rate of 40% or more and less than 70%)
11 | COc1ccccc1-c1sc2cc(OCC(F)F)ccc2c1-c1c(O)c(C)nn(C)c1=O [3-114] | 5 (Herbicidal rate of 90% or more (almost completely withered))
12 | CCOc1ccccc1-c1sc2cc(OCCOC)ccc2c1-c1c(O)c(C)nn(C)c1=O [3-123] | 4 (Herbicidal rate of 70% or more and less than 90%)

system: southern crabgrass; test: Test Example 5: herbicidal effect by foliage application, plastic box (Table 20, symbol F); assay type: in vivo, southern crabgrass (Digitaria ciliaris); conditions: foliage application, 320 g/ha, three weeks after application
Procedure, shortened: as §2

Row | SMILES | F: southern crabgrass, herbicidal effect grade
13 | CCCOc1ccc2c(-c3c(O)c(C)nn(C)c3=O)c(-c3ccccc3OCC)sc2c1 [3-103] | 5 (Herbicidal rate of 90% or more (almost completely withered))
14 | COc1ccccc1-c1sc2cc(OCC(F)F)ccc2c1-c1c(O)c(C)nn(C)c1=O [3-114] | 5 (Herbicidal rate of 90% or more (almost completely withered))
15 | CCOc1ccccc1-c1sc2cc(OCCOC)ccc2c1-c1c(O)c(C)nn(C)c1=O [3-123] | 5 (Herbicidal rate of 90% or more (almost completely withered))

system: green foxtail; test: Test Example 5: herbicidal effect by foliage application, plastic box (Table 20, symbol G); assay type: in vivo, green foxtail (Setaria viridis); conditions: foliage application, 320 g/ha, three weeks after application
Procedure, shortened: as §2

Row | SMILES | G: green foxtail, herbicidal effect grade
16 | CCCOc1ccc2c(-c3c(O)c(C)nn(C)c3=O)c(-c3ccccc3OCC)sc2c1 [3-103] | 5 (Herbicidal rate of 90% or more (almost completely withered))
17 | COc1ccccc1-c1sc2cc(OCC(F)F)ccc2c1-c1c(O)c(C)nn(C)c1=O [3-114] | 5 (Herbicidal rate of 90% or more (almost completely withered))
18 | CCOc1ccccc1-c1sc2cc(OCCOC)ccc2c1-c1c(O)c(C)nn(C)c1=O [3-123] | 5 (Herbicidal rate of 90% or more (almost completely withered))

system: persian speedwell; test: Test Example 5: herbicidal effect by foliage application, plastic box (Table 20, symbol R); assay type: in vivo, Persian speedwell (Veronica persica); conditions: foliage application, 320 g/ha, three weeks after application
Procedure, shortened: as §2

Row | SMILES | R: persian speedwell, herbicidal effect grade
19 | CCCOc1ccc2c(-c3c(O)c(C)nn(C)c3=O)c(-c3ccccc3OCC)sc2c1 [3-103] | 5 (Herbicidal rate of 90% or more (almost completely withered))
20 | COc1ccccc1-c1sc2cc(OCC(F)F)ccc2c1-c1c(O)c(C)nn(C)c1=O [3-114] | 5 (Herbicidal rate of 90% or more (almost completely withered))
21 | CCOc1ccccc1-c1sc2cc(OCCOC)ccc2c1-c1c(O)c(C)nn(C)c1=O [3-123] | 5 (Herbicidal rate of 90% or more (almost completely withered))

system: redroot pigweed; test: Test Example 5: herbicidal effect by foliage application, plastic box (Table 20, symbol N); assay type: in vivo, redroot pigweed (Amaranthus retroflexus); conditions: foliage application, 320 g/ha, three weeks after application
Procedure, shortened: as §2

Row | SMILES | N: redroot pigweed, herbicidal effect grade
22 | CCCOc1ccc2c(-c3c(O)c(C)nn(C)c3=O)c(-c3ccccc3OCC)sc2c1 [3-103] | 5 (Herbicidal rate of 90% or more (almost completely withered))
23 | COc1ccccc1-c1sc2cc(OCC(F)F)ccc2c1-c1c(O)c(C)nn(C)c1=O [3-114] | 5 (Herbicidal rate of 90% or more (almost completely withered))
24 | CCOc1ccccc1-c1sc2cc(OCCOC)ccc2c1-c1c(O)c(C)nn(C)c1=O [3-123] | 5 (Herbicidal rate of 90% or more (almost completely withered))

system: Japanese bulrush; test: Test Example 1: herbicidal activity, application before weed generation under submerged conditions (Table 16, symbol B); assay type: in vivo, Japanese bulrush (Schoenoplectus juncoides); conditions: amount of applied herbicide 320 g/ha
Procedure, shortened: as §1

Row | SMILES | Herbicidal effect, B: Japanese bulrush
25 | CCCOc1ccc2c(-c3c(O)c(C)nn(C)c3=O)c(-c3ccccc3OCC)sc2c1 [3-103] | 5 (Herbicidal rate of 90% or more (almost completely withered))
26 | COc1ccccc1-c1sc2cc(OCC(F)F)ccc2c1-c1c(O)c(C)nn(C)c1=O [3-114] | 5 (Herbicidal rate of 90% or more (almost completely withered))
27 | CCOc1ccccc1-c1sc2cc(OCCOC)ccc2c1-c1c(O)c(C)nn(C)c1=O [3-123] | 5 (Herbicidal rate of 90% or more (almost completely withered))

system: barnyard grass; test: Test Example 4: herbicidal effect by soil treatment (Table 19, symbol H); assay type: in vivo, barnyard grass (Echinochloa crus-galli); conditions: amount of applied herbicide 320 g/ha
Procedure, shortened: as §3

Row | SMILES | H: barnyard grass, herbicidal effect grade
28 | CCCOc1ccc2c(-c3c(O)c(C)nn(C)c3=O)c(-c3ccccc3OCC)sc2c1 [3-103] | 4 (Herbicidal rate of 70% or more and less than 90%)
29 | COc1ccccc1-c1sc2cc(OCC(F)F)ccc2c1-c1c(O)c(C)nn(C)c1=O [3-114] | 5 (Herbicidal rate of 90% or more (almost completely withered))
30 | CCOc1ccccc1-c1sc2cc(OCCOC)ccc2c1-c1c(O)c(C)nn(C)c1=O [3-123] | 5 (Herbicidal rate of 90% or more (almost completely withered))

system: chickweed; test: Test Example 4: herbicidal effect by soil treatment (Table 19, symbol P); assay type: in vivo, common chickweed (Stellaria media); conditions: amount of applied herbicide 320 g/ha
Procedure, shortened: as §3

Row | SMILES | P: chickweed, herbicidal effect grade
31 | CCCOc1ccc2c(-c3c(O)c(C)nn(C)c3=O)c(-c3ccccc3OCC)sc2c1 [3-103] | 5 (Herbicidal rate of 90% or more (almost completely withered))
32 | COc1ccccc1-c1sc2cc(OCC(F)F)ccc2c1-c1c(O)c(C)nn(C)c1=O [3-114] | 5 (Herbicidal rate of 90% or more (almost completely withered))
33 | CCOc1ccccc1-c1sc2cc(OCCOC)ccc2c1-c1c(O)c(C)nn(C)c1=O [3-123] | 5 (Herbicidal rate of 90% or more (almost completely withered))

system: southern crabgrass; test: Test Example 4: herbicidal effect by soil treatment (Table 19, symbol F); assay type: in vivo, southern crabgrass (Digitaria ciliaris); conditions: amount of applied herbicide 320 g/ha
Procedure, shortened: as §3

Row | SMILES | F: southern crabgrass, herbicidal effect grade
34 | CCCOc1ccc2c(-c3c(O)c(C)nn(C)c3=O)c(-c3ccccc3OCC)sc2c1 [3-103] | 5 (Herbicidal rate of 90% or more (almost completely withered))
35 | COc1ccccc1-c1sc2cc(OCC(F)F)ccc2c1-c1c(O)c(C)nn(C)c1=O [3-114] | 4 (Herbicidal rate of 70% or more and less than 90%)
36 | CCOc1ccccc1-c1sc2cc(OCCOC)ccc2c1-c1c(O)c(C)nn(C)c1=O [3-123] | 5 (Herbicidal rate of 90% or more (almost completely withered))

system: late watergrass; test: Test Example 2: herbicidal activity, application during weed generation under submerged conditions (Table 17, symbol A); assay type: in vivo, late watergrass (Echinochloa oryzicola); conditions: AAH 320 g/ha; application during weed generation, submerged conditions
Procedure, shortened: (§4)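 Wagner pot, alluvial soil, 4 cm flood; mixed sowing of all species; greenhouse 25° C.–30° C. Emulsifiable formulation, water-diluted to predetermined dose, applied to paddy water at 1–2 leaf stage. Effect rated at 3 wk using the earlier test's scoring criteria.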

Row | SMILES | herbicidal effect rating, A: late watergrass
37 | CCCOc1ccc2c(-c3c(O)c(C)nn(C)c3=O)c(-c3ccccc3OCC)sc2c1 [3-103] | 2 (Herbicidal rate of 20% or more and less than 40%)
38 | COc1ccccc1-c1sc2cc(OCC(F)F)ccc2c1-c1c(O)c(C)nn(C)c1=O [3-114] | 3 (Herbicidal rate of 40% or more and less than 70%)
39 | CCOc1ccccc1-c1sc2cc(OCCOC)ccc2c1-c1c(O)c(C)nn(C)c1=O [3-123] | 3 (Herbicidal rate of 40% or more and less than 70%)

system: lambsquarters; test: Test Example 5: herbicidal effect by foliage application, plastic box (Table 20, symbol O); assay type: in vivo, lambsquarters (Chenopodium album); conditions: foliage application, 320 g/ha, three weeks after application
Procedure, shortened: as §2

Row | SMILES | O: lambsquarters, herbicidal effect grade
40 | CCCOc1ccc2c(-c3c(O)c(C)nn(C)c3=O)c(-c3ccccc3OCC)sc2c1 [3-103] | 4 (Herbicidal rate of 70% or more and less than 90%)
41 | COc1ccccc1-c1sc2cc(OCC(F)F)ccc2c1-c1c(O)c(C)nn(C)c1=O [3-114] | 5 (Herbicidal rate of 90% or more (almost completely withered))
42 | CCOc1ccccc1-c1sc2cc(OCCOC)ccc2c1-c1c(O)c(C)nn(C)c1=O [3-123] | 5 (Herbicidal rate of 90% or more (almost completely withered))

system: oval-leafed pondweed; test: Test Example 2: herbicidal activity, application during weed generation under submerged conditions (Table 17, symbol C); assay type: in vivo, oval-leafed pondweed (Monochoria vaginalis); conditions: AAH 320 g/ha; application during weed generation, submerged conditions
Procedure, shortened: as §4

Row | SMILES | herbicidal effect rating, C: oval-leafed pondweed
43 | CCCOc1ccc2c(-c3c(O)c(C)nn(C)c3=O)c(-c3ccccc3OCC)sc2c1 [3-103] | 3 (Herbicidal rate of 40% or more and less than 70%)
44 | COc1ccccc1-c1sc2cc(OCC(F)F)ccc2c1-c1c(O)c(C)nn(C)c1=O [3-114] | 5 (Herbicidal rate of 90% or more (almost completely withered))
45 | CCOc1ccccc1-c1sc2cc(OCCOC)ccc2c1-c1c(O)c(C)nn(C)c1=O [3-123] | 2 (Herbicidal rate of 20% or more and less than 40%)

system: windgrass; test: Test Example 5: herbicidal effect by foliage application, plastic box (Table 20, symbol L); assay type: in vivo, windgrass (Apera spica-venti); conditions: foliage application, 320 g/ha, three weeks after application
Procedure, shortened: as §2

Row | SMILES | L: windgrass, herbicidal effect grade
46 | CCCOc1ccc2c(-c3c(O)c(C)nn(C)c3=O)c(-c3ccccc3OCC)sc2c1 [3-103] | 4 (Herbicidal rate of 70% or more and less than 90%)
47 | COc1ccccc1-c1sc2cc(OCC(F)F)ccc2c1-c1c(O)c(C)nn(C)c1=O [3-114] | 5 (Herbicidal rate of 90% or more (almost completely withered))
48 | CCOc1ccccc1-c1sc2cc(OCCOC)ccc2c1-c1c(O)c(C)nn(C)c1=O [3-123] | 5 (Herbicidal rate of 90% or more (almost completely withered))
